The text below walks through data of patent US11173143B2, “Composition for decreasing serum uric acid level” (ASAHI GROUP HOLDINGS, LTD., priority 2017, dated 2021).

The test relates to serum uric acid. Description: Serum uric acid level after 8 weeks of daily intake in subjects with hyperuricemia. Particulars: for Serum uric acid level, After 8 weeks: daily intake. It counts as in vivo, human. The method, then:
Tests were conducted with subjects with hyperuricemia having high serum uric acid levels (7.1 mg/dl or higher) after their written informed consents were obtained. […] Their serum uric acid levels were measured before the intake and after 8 weeks of the intake. A sign test was used as the test of significance.

`NCC(=O)O` [Gly, glycine]: the Amount of change is -0.13 mg/dL (Average of the group (n=4)); 0.4 mg/dL (Subject A); 0.0 mg/dL (Subject B); -0.5 mg/dL (Subject C); -0.4 mg/dL (Subject D). In addition, the “Serum uric acid level, Before start of intake” value by setting is: (Average of the group (n=4)) 7.73 mg/dL; (Subject A) 8.9 mg/dL; (Subject B) 7.8 mg/dL; (Subject C) 7.1 mg/dL; (Subject D) 7.1 mg/dL. Further, the “Serum uric acid level, After 8 weeks” value (Average of the group (n=4)) amounted to 7.60 mg/dL; the “Serum uric acid level, After 8 weeks” value (Subject A) was determined as 9.3 mg/dL; the “Serum uric acid level, After 8 weeks” value (Subject B) turned out to be 7.8 mg/dL; the “Serum uric acid level, After 8 weeks” value (Subject C) was found to be 6.6 mg/dL; the “Serum uric acid level, After 8 weeks” value (Subject D) is 6.7 mg/dL. Moreover, the “Change of serum uric acid levels after 8 weeks of continuous intake (in words)” value (subjects with hyperuricemia) was “slightly decreased after 8 weeks of continuous intake, but the decreases were not significant”.
